Measurements reported in patent publication US9441024B2, “Glycosylated polypeptide and drug composition containing said polypeptide” (priority 2011, dated 2016).

Key:
[1] = tested on: growth hormone (GH) production; experiment: GH production suppression test with rats; format: in vivo, rat; conditions: for GH: rat plasma GH concentration; for GH production suppression activity (in words) / GH concentration in plasma: rat; for GH production suppression activity (in words): s.c., 10 or 100 nmol/kg; for GH concentration in plasma: 1 hour before GRF, blood 5 minutes after GRF, vehicle 861
Source text: As shown in Example 69, the glycosylated polypeptide of the present invention had affinity towards each receptor of SSTR. […] Increase of GH production amount into the blood is thought to cause proliferation or differentiation of cells and activation or suppression of the biosynthetic system in various organs via the paracrine effect of GH, and thereby influence biological reactions. Somatostatin released from the hypothalamus suppresses GH secretion from the anterior pituitary gland into the blood.
. Moreover, GRF (GH releasing hormone, Growth hormone releasing factor) was used as the GH release enhancer. GRF was prepared by dissolving GRF injectable solution (GRF Sumitomo 50 for injection, Lot. 2006C, from Dainippon Sumitomo Pharma Co., Ltd.) in 1 mL of water for injection (Lot. 09H18C, from Fuso Pharmaceutical Industries, Ltd.), and then diluting to 25-folds with saline to obtain 2 μg/mL. As heparin employed as the anticoagulant when collecting blood, Japanese Pharmacopeia heparin sodium injectable solution (Lot. B084, from Mochida Pharmaceutical Co., Ltd.) was used directly as stock solution.
[…]. As the control group, saline without glycosylated polypeptide was similarly administered (vehicle group). Then, i.e. between 5-6 minutes after the administration of the glycosylated form, pentobarbital sodium (somnopentyl, Lot. 0608101, from Kyoritsuseiyaku Corporation) was intraperitoneally administered as a general anesthetic with a glass syringe and an injection needle to give 50 mg/kg. […] […].
. […] By multiplying the results obtained and the dilution ratio, the GH concentration was calculated.

[2] = tested on: rat gastrointestinal obstruction model; experiment: Gastrointestinal obstruction model: intestinal fluid weight of the jejunum; format: in vivo; conditions: for Intestinal fluid weight: Table 9, rat, 40 μM solution 1 mL/kg s.c. 18 h after ligation, 1 h after administration
Source text: Anesthesia was introduced with inhalation of 2% isoflurane and laughing gas:oxygen=7:3, and this was maintained throughout the surgery. A median incision was made in the abdomen, and the jejunum at about 10 cm from the musculus suspensorius duodeni was ligated with a surgical suture. Then, the incision site was promptly sutured, and the rats were fasted until compound administration. In the sham treatment group, ligation of the jejunum was not performed, but the treatment of suturing the incision site after a median incision was made in the abdomen was performed.
(§1) Eighteen hours after the gastrointestinal obstruction surgery, this was subcutaneously administered into the dorsal cervix at a dosage of 1 mL/kg with a glass syringe and a 25 G injection needle (all from Terumo Corporation). As the vehicle group, saline without glycosylated polypeptide was similarly administered.
One hour after compound administration, a median incision was made in the abdomen under inhalation anesthesia, and 1.5 mL of blood was collected from the abdominal vena cava. Then, the ligated jejunum on the musculus suspensorius duodeni side was resected. The fluid and blood on the jejunum surface were removed with a paper towel, nerves, blood vessels, and fat attached to the jejunum was removed, this was cut into 6 cm lengths, and wet weight was measured. This was then dried at 36 degrees for 24 hours, and dry weight was measured. The intestinal fluid weight (mg) was calculated by wet weight-dry weight.

SSTR1-SSTR5 = experiment: Competitive binding assay, statements over all receptors SSTR1-SSTR5; set-up: species or system Human; conditions: range over SSTR1-SSTR5, Example 69-1
Experimental: Competitive binding assay was performed with the method below to calculate receptor binding affinity.
Competitive binding assay was consigned to Ricerca Biosciences, and experiment and data analysis was performed. […] The test substance was used at a concentration of 0.01 nM, 0.1 nM, 1 nM, 10 nM, 100 nM, or 1000 nM, and mixed with the membrane sample into a reaction solution. The incubation condition of the reaction solution was at 25° C. for 4 hours for SSTR2 and at 25° C. for 2 hours for SSTR1, SSTR3, SSTR4, and SSTR5.

[3] = tested on: rat gastrointestinal obstruction model; experiment: Gastrointestinal obstruction model: blood parameters (amylase, LDH, CPK); format: in vivo
Experimental: This experimental line was carried out as a test line to evaluate the promotion of intestinal fluid absorption or the secretory suppressing action, using the change in the intestinal fluid weight in the jejunum after bowel obstruction as an indicator. Moreover, blood parameters of deviation enzymes amylase (pancreas), lactate dehydrogenase (LDH, liver), and creatine phosphokinase (CPK, skeletal muscle, cardiac muscle etc.) were measured as indicators of tissue disorders.
The present test was consigned to Mitsubishi Chemical Medience Corporation and carried out. […] Anesthesia was introduced with inhalation of 2% isoflurane and laughing gas:oxygen=7:3, and this was maintained throughout the surgery. A median incision was made in the abdomen, and the jejunum at about 10 cm from the musculus suspensorius duodeni was ligated with a surgical suture. Then, the incision site was promptly sutured, and the rats were fasted until compound administration. In the sham treatment group, ligation of the jejunum was not performed, but the treatment of suturing the incision site after a median incision was made in the abdomen was performed.
as §1
One hour after compound administration, a median incision was made in the abdomen under inhalation anesthesia, and 1.5 mL of blood was collected from the abdominal vena cava.
The measuring methods employed were BG5B, UV-rate, and JSCC methods, respectively.

[4] = Table 10, blood 1 h after s.c. administration
[5] = blood collected one hour after compound administration, rat gastrointestinal obstruction model

**Q.** With S1C(monosialo)-SRIF28 [Example 26] as the molecule, how does the “GH” value ([1]; dose 10 nmol/kg) read?
**A.** Its value is 47 ng/mL.

**Q.** What does the source list for R13C(disialo)-SRIF28 [Example 5]?
**A.** GH ([1]; dose 10 nmol/kg): 136 ng/mL; GH production suppression activity (in words) [1]: showed GH production suppression activity

**Q.** S1C(disialo(Bn))-SRIF28 [Example 61] was tested. Which “GH” value ([1]; dose 10 nmol/kg) did it give?
**A.** The value was 49 ng/mL.

**Q.** For S1-2C(asialo)-SRIF28 [Example 28], which “GH” value ([1]; dose 3 nmol/kg) is on record?
**A.** The value was 997 ng/mL.

**Q.** And the “GH” value ([1]; dose 10 nmol/kg)?
**A.** Its value is 175 ng/mL.

**Q.** What about the Intestinal fluid weight [2] of the same molecule?
**A.** Its Intestinal fluid weight is 566 ± 34 mg.

**Q.** What about the “Intestinal fluid weight compared to the vehicle (in words)” value ([2]; text on Table 9) of the same molecule?
**A.** Its value is “increase in the intestinal fluid weight compared to the vehicle”.

**Q.** And the “Affinity towards SSTR1-SSTR5, times higher than S1C(disialo)-SRIF28” value (SSTR1-SSTR5)?
**A.** Its value is 1.7-2.9 folds.

**Q.** With S1C(asialo)-SRIF28 [Example 27] as the molecule, how does the “GH” value ([1]; dose 1 nmol/kg) read?
**A.** Its value is 879 ng/mL.

**Q.** And the “GH” value ([1]; dose 3 nmol/kg)?
**A.** Its value is 515 ng/mL.

**Q.** What about the “GH” value ([1]; dose 10 nmol/kg) of the same molecule?
**A.** Its value is 146 ng/mL.

**Q.** Which “GH” value ([1]; dose 0.3 nmol/kg) does the source give for “S1C(disialo)-D-Trp22-SRIF28 [Example 15]” here?
**A.** Its value is 986 ng/mL.

**Q.** And the “GH” value ([1]; dose 1 nmol/kg)?
**A.** Its value is 335 ng/mL.

**Q.** What about the “GH” value ([1]; dose 3 nmol/kg) of the same molecule?
**A.** The value was 50 ng/mL.

**Q.** And the “GH” value ([1]; dose 10 nmol/kg)?
**A.** The value was 6 ng/mL.

**Q.** What about the “GH” value ([1]; dose 30 nmol/kg) of the same molecule?
**A.** Its value is 2 ng/mL.

**Q.** How did the “GH concentration in plasma” value ([1]; subcutaneous 10 nmol/kg) turn out when 29C(disialo)-SRIF28 [Example 13] was run?
**A.** The value was 497 ng/mL.

**Q.** And the “GH concentration in plasma” value ([1]; subcutaneous 100 nmol/kg)?
**A.** The value was 88.5 ng/mL.

**Q.** With E12C(disialo)-SRIF28 [Example 4] as the molecule, how does the “GH” value ([1]; dose 10 nmol/kg) read?
**A.** The value was 10 ng/mL.

**Q.** With `C[C@@H](O)[C@@H]1NC(=O)[C@H](CCCCN)NC(=O)[C@@H](Cc2c[nH]c3ccccc23)NC(=O)[C@H](Cc2ccccc2)NC(=O)[C@@H](NC(=O)[C@H](N)Cc2ccccc2)CSSC[C@@H](C(=O)N[C@H](CO)[C@@H](C)O)NC1=O` [Octreotide] as the molecule, how does the Intestinal fluid weight [2] read?
**A.** The Intestinal fluid weight was 693 ± 48 mg.

**Q.** What about the “Amylase activity compared to the vehicle (in words)” value [3, 4] of the same molecule?
**A.** Its value is “equivalent to the vehicle”.

**Q.** What about the “LDH activity compared to the vehicle (in words)” value [3, 4] of the same molecule?
**A.** The value was “low value compared to the vehicle”.

**Q.** And the “Amylase (IU/L)” value [3, 5]?
**A.** The value was 1732 ± 774 IU/L.

**Q.** And the “CPK (IU/L)” value [3, 5]?
**A.** Its value is 472 ± 215 IU/L.

**Q.** What about the “LDH (IU/L)” value [3, 5] of the same molecule?
**A.** The value was 269 ± 141 IU/L.

**Q.** Which “GH” value ([1]; dose 10 nmol/kg) does the source give for K14C(disialo)-SRIF28 [Example 6] here?
**A.** The value was 55 ng/mL.

**Q.** What about the “GH production suppression activity (in words)” value [1] of the same molecule?
**A.** The value was “showed GH production suppression activity”.

**Q.** N19C(disialo)-SRIF28 [Example 10] was tested. Which “GH concentration in plasma” value ([1]; subcutaneous 10 nmol/kg) did it give?
**A.** Its value is 563 ng/mL.

**Q.** What about the “GH concentration in plasma” value ([1]; subcutaneous 100 nmol/kg) of the same molecule?
**A.** Its value is 1.5 ng/mL.

**Q.** How did the “GH” value ([1]; dose 10 nmol/kg) turn out when “S1C(disialo(aminoethylamide))-SRIF28 [Example 59]” was run?
**A.** Its value is 314 ng/mL.

**Q.** Which “GH” value ([1]; dose 10 nmol/kg) does the source give for S1C(disialo(amide))-SRIF28 [Example 60] here?
**A.** The value was 14 ng/mL.

**Q.** Which results are given for A9C(disialo)-SRIF28 [Example 3]?
**A.** GH ([1]; dose 1 nmol/kg): 577 ng/mL; GH ([1]; dose 10 nmol/kg): 20 ng/mL

**Q.** With N5C(disialo)-SRIF28 [Example 2] as the molecule, how does the “GH” value ([1]; dose 1 nmol/kg) read?
**A.** The value was 969 ng/mL.

**Q.** What about the “GH” value ([1]; dose 10 nmol/kg) of the same molecule?
**A.** Its value is 12 ng/mL.
